In patent US20230192705A1, “SHP2 INHIBITORS, COMPOSITIONS AND USES THEREOF” (Betta Pharmaceuticals Co., Ltd, priority 2020, published 2023):

Target: T1, SHP2 (Homo sapiens, UniProt Q06124)
T1 sequence (Q06124 1-593): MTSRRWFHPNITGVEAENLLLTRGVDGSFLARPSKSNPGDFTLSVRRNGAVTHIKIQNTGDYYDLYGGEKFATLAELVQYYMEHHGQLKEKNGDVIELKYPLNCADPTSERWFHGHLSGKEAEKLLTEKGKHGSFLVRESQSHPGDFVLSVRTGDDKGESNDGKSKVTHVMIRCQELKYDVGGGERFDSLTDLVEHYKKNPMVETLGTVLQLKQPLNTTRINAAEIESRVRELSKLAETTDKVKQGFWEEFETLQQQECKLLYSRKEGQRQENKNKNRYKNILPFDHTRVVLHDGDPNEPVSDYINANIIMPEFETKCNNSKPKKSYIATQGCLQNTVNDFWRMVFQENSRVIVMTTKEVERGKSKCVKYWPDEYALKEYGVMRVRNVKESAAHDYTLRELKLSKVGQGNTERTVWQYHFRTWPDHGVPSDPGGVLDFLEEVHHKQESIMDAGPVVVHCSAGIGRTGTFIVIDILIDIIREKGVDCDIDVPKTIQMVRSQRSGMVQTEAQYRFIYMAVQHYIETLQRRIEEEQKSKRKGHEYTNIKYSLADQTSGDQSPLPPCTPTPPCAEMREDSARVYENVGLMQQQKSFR
Assay: SHP2 allosteric inhibitor enzyme activity assay (DiFMUP fluorescence)
Format: biochemical
Details: class symbols
From the text: SHP2 is activated by the binding of a bis-tyrosyl-phosphorylated peptide to its Src homologous 2 (SH2) domain. This subsequent activation step leads to the release of the automatic inhibition interface of SHP2, which in turn activates the SHP2 protein tyrosine phosphatase (PTP) and can be used for substrate recognition and reaction catalysis. The catalytic activity of SHP2 was monitored using the alternative DiFMUP in a rapid fluorescence assay format.
Assay procedures are as follows:
(1) Compound Formulation:
The compound of the present invention (10 mM stock solution) was diluted to a suitable multiple with 100% DMSO and assay buffer, and the final test concentration of the compound of the present invention was 1 μM, 0.333 μM, 0.111 μM, 0.0370 μM, 0.0124 μM, 0.00412 μM, 0.00137 μM, 0.00046 μM, 0.00015 μM, 0.00 μM;
(2) Preparation of Enzyme Reaction Working Fluid:
SHP2 enzyme activity was performed using a final reaction volume of 50 μL and the following assay buffer conditions in 96-well black polystyrene plates (flat bottom, low flange, non-bonding surface) (Perki Elmer, Cat #6005270) at room temperature: 60 mM HEPES, 75 mM NaCl, 75 mM KCl, 0.05% BRIJ-35, 1 mM EDTA, 5 mM DTT.
(3) Enzyme Catalytic Reaction and Data Monitoring:
Compounds of the present invention were added to the corresponding 96-well plates, and no compound and enzyme were provided as blank test wells. SHP2 Activating Peptide (IRS1_pY1172 (dPEG8)pY1222) was placed on ice for melting, and 0.5 μM was added per well, then 0.2 ng SHP2 protein samples were added to corresponding well plates, and incubated at room temperature for 1 hour. Substrate DiFMUP (Invitrogen, Cat #D6567) was added to the reaction at room temperature for 1 hour. Fluorescence signals were monitored using an enzyme reader (Envision, Perki Elmer) using excitation wavelengths and emission wavelengths of 340 nm and 450 nm, respectively.
Inhibition %=[1−(Conversion_sample−Conversion_min)/(Conversion_max−Conversion_min)]*100% Calculation formula: […]
where: Conversion_sample is the mean reading of the sample wells; Conversion_min is the mean reading of blank control wells, representing the reading of the wells without enzyme; Conversion_max is the mean of positive control wells, representing the reading of the wells without inhibitor.
The dose-response curve is fitted with GraphPad Prism software and IC50 was calculated by the “log[inhibitor] vs. response-variable slope” program.

Row | SMILES | IC50 [nM]
1 | N[C@@H]1c2cccnc2CC12CCN(c1nc3[nH]nc(C4(c5ccccc5)CC4)c3c(=O)[nH]1)CC2 [Example 200, (S)-6-(5-amino-5,7-dihydrospiro[cyclopenta[b]pyridine-6,4′-piperidin]-1-yl)-3-(1-phenylcyclopropyl)-1,5-dihydro-4H-pyrazolo[3,4-d]pyrimidin-4-one] | ≤ 20
2 | NC1c2ccccc2CC12CCN(c1nc3[nH]nc(C4=CCCn5ccnc54)c3c(=O)[nH]1)CC2 (stereo not shown) [Example 128] | ≤ 20
3 | C[C@@H]1OCC2(CCN(c3ncc(C4(c5ccccc5)CC4)c(=O)n3C)CC2)[C@@H]1N [Example 263, 2-((3S,4S)-4-amino-3-methyl-2-oxa-8-azaspiro[4.5]decan-8-yl)-3-methyl-5-(1-phenylcyclopropyl)pyrimidin-4(3H)-one] | > 60
4 | CC1(C)C=C(c2n[nH]c3nc(N4CCC5(CC4)Cc4ccccc4[C@H]5N)[nH]c(=O)c23)c2cnc(C(F)(F)F)nc2C1 [Example 146, (S)-6-(l-amino-1,3-dihydrospiro[indene-2,4'-piperidin]-1′-yl)-3-(7,7-dimethyl-2-(trifluoromethyl)-7,8-dihydroquinazolin-5-yl)-1,5-dihydro-4H-pyrazolo[3,4-d]pyrimidin-4-one] | ≤ 20
5 | C[C@@H]1OCC2(CCN(c3ncc(C4(c5ccccc5)CC4)nc3C(N)=O)CC2)[C@@H]1N [Example 259, 3-((3S,4S)-4-amino-3-methyl-2-oxa-8-azaspiro[4.5]decan-8-yl)-6-(1-phenylcyclopropyl)pyrazine-2-carboxamide] | > 60
6 | N[C@@H]1c2ccccc2CC12CCN(c1nc3[nH]nc(C4(c5ccncc5)CC4)c3c(=O)[nH]1)CC2 [Example 219, (S)-6-(1-amino-1,3-dihydrospiro[indene-2,4′-piperidin]-1′-yl)-3-(1-(pyridin-4-yl)cyclopropyl)-1,5-dihydro-4H-pyrazolo[3,4-d]pyrimidin-4-one] | ≤ 20
7 | N[C@@H]1c2ccccc2CC12CCN(c1nc3[nH]nc(C4(c5ccnc6c5CCCN6)CC4)c3c(=O)[nH]1)CC2 [Example 79, (S)-6-(1-amino-1,3-dihydrospiro[indene-2,4′-piperidin]-1′-yl)-3-(1-(5,6,7,8-tetrahydro-1,8-naplitliyridin-4-yl)cyclopropyl)-1,5-dihydro-4H-pyrazolo[3,4-d]pyrimidin-4-one] | ≤ 20
8 | CC1(C)NC=C(c2n[nH]c3nc(N4CCC5(CC4)Cc4ccccc4[C@H]5N)[nH]c(=O)c23)c2ccccc21 [Example 179, (S)-6-(1-amino-1,3-dihydrospiro[indene-2,4′-piperidin]-1′-yl)-3-(1,1-dimethyl-1,2-dihydroisoquinolin-4-yl)-1,5-dihydro-4H-pyrazolo[3,4-d]pyrimidin-4-one] | ≤ 20
9 | N[C@@H]1c2ccccc2CC12CCN(c1nc3[nH]nc(C4(c5cccc(CO)c5)CC4)c3c(=O)[nH]1)CC2 [Example 226, (S)-6-(1-amino-1,3-dihydrospiro[indene-2,4′-piperidin]-1′-yl)-3-(1-(3-(hydroxymethyl)phenyl)cyclo-propyl)-1,5-dihydro-4H-pyrazolo[3,4-d]pyrimidin-4-one] | ≤ 20
10 | Cn1ccc2c1CCC=C2c1n[nH]c2nc(N3CCC4(CC3)Cc3ccccc3[C@H]4N)[nH]c(=O)c12 [Example 120, (S)-6-(1-amino-1,3-dihydrospiro[indene-2,4′-piperidin]-1′-yl)-3-(1-methyl-6,7-dihydro-1H-indol-4-yl)-1,5-dihydro-4H-pyrazolo[3,4-d]pyrimidin-4-one] | ≤ 20
11 | Cc1cccc(C2(c3n[nH]c4nc(N5CCC6(CC5)Cc5ccccc5[C@H]6N)[nH]c(=O)c34)CC2)n1 [Example 248, (S)-6-(1-amino-1,3-dihydrospiro[indene-2,4′-piperidin]-1′-yl)-3-(1-(6-methylpyridin-2-yl)cyclopropyl)-1,5-dihydro-4H-pyrazolo[3,4-d]pyrimidin-4-one] | ≤ 20
12 | N[C@@H]1COCC12CCN(c1nc3[nH]nc(C4(c5ccccc5)CC4)c3c(=O)[nH]1)CC2 [Example 271, (S)-6-(4-amino-2-oxa-8-azaspiro[4.5]decan-8-yl)-3-(1-phenylcyclopropyl)-1,5-dihydro-4H-pyrazolo[3,4-d]pyrimidin-4-one] | 20 to 60
13 | N[C@@H]1c2ccccc2CC12CCN(c1nc3[nH]nc(C4(c5ccccc5)CCOCC4)c3c(=O)[nH]1)CC2 [Example 100, (S)-6-(1-amino-1,3-dihydrospiro[indene-2,4′-piperidin]-1′-yl)-3-(4-phenyltetrahydro-2H-pyran-4-yl)-1,5-dihydro-4H-pyrazolo[3,4-d]pyrimidin-4-one] | 20 to 60
14 | N[C@@H]1c2ccccc2CC12CCN(c1nc3[nH]nc(C4(c5ccnc(-c6ccccn6)c5)CC4)c3c(=O)[nH]1)CC2 [Example 87, (S)-3-(1-([2,2′-bipyridin]-4-yl)cyclopropyl)-6-(1-amino-1,3-dihydrospiro[indene-2,4′-piperidin]-1′-yl)-1,5-dihydro-4H-pyrazolo[3,4-d]pyrimidin-4-one] | ≤ 20
15 | Cn1ccc(-c2cc(C3(c4n[nH]c5nc(N6CCC7(CC6)Cc6ccccc6[C@H]7N)[nH]c(=O)c45)CC3)ccn2)n1 [Example 88, (S)-6-(1-amino-1,3-dihydrospiro[indene-2,4′-piperidin]-1′-yl)-3-(1-(2-(1-methyl-1H-pyrazol-3-yl)pyridin-4-yl)cyclopropyl)-1,5-dihydro-4H-pyrazolo[3,4-d]pyrimidin-4-one] | ≤ 20
16 | N[C@@H]1c2ccccc2CC12CCN(c1cnc3c([C@H]4C[C@H]4c4ccccc4)n[nH]c3n1)CC2 [Example 106, (S)-1′-(3-((1S,2R)-2-phenylcyclopropyl)-1H-pyrazolo[3,4-b]pyrazin-6-yl)-1,3-dihydrospiro[indene-2,4′-piperidin]-1-amine] | ≤ 20
17 | N[C@@H]1c2ccccc2CC12CCN(c1nc3[nH]nc(C4=CCOc5ccccc54)c3c(=O)[nH]1)CC2 [Example 173, (S)-6-(1-amino-1,3-dihydrospiro[indene-2,4′-piperidin]-1′-yl)-3-(2H-chromen-4-yl)-1,5-dihydro-4H-pyrazolo[3,4-d]pyrimidin-4-one] | ≤ 20
18 | N#Cc1cccc(C2(c3n[nH]c4nc(N5CCC6(CC5)Cc5ccccc5[C@H]6N)[nH]c(=O)c34)CC2)c1 [Example 35, (S)-3-(1-(6-(1-amino-1,3-dihydrospiro[indene-2,4′-piperidin]-1′-yl)-4-oxo-4,5-dihydro-1H-pyrazolo[3,4-d]pyrimidin-3-yl)cyclopropyl)benzonitrile] | ≤ 20
19 | C[C@@H]1OCC2(CCN(c3ncc(C4(c5ccccc5)CC4)c(=O)[nH]3)CC2)[C@@H]1N [Example 262, 2-((3S,4S)-4-amino-3-methyl-2-oxa-8-azaspiro[4.5]decan-8-yl)-5-(1-phenylcyclopropyl)pyrimidin-4(3H)-one] | > 60
20 | CC1(C)CC=C(c2n[nH]c3nc(N4CCC5(CC4)Cc4ccccc4C5N)[nH]c(=O)c23)c2cccnc21 (stereo not shown) [Example 127, 6-(1-amino-1,3-dihydrospiro[indene-2,4′-piperidin]-1′-yl)-3-(8,8-dimethyl-7,8-dihydroquinolin-5-yl)-1,5-dihydro-4H-pyrazolo[3,4-d]pyrimidin-4-one] | ≤ 20
21 | C[C@@H]1OCC2(CCN(c3cnc(C4(c5ccccc5)CC4)cn3)CC2)[C@@H]1N [Example 258, (3S,4S)-3-methyl-8-(5-(1-phenylcyclopropyl)pyrazin-2-yl)-2-oxa-8-azaspiro[4.5]decan-4-amine] | > 60
22 | Nc1nccc(C2(c3n[nH]c4nc(N5CCC6(CC5)Cc5ccccc5[C@H]6N)[nH]c(=O)c34)CC2)c1F [Example 59, (S)-6-(1-amino-1,3-dihydrospiro[indene-2,4′-piperidin]-1′-yl)-3-(1-(2-amino-3-fluoropyridin-4-yl)cyclopropyl)-1,5-dihydro-4H-pyrazolo[3,4-d]pyrimidin-4-one] | ≤ 20
